Assay results as given in patent US10945932B2, “Prebiotic oral care compositions containing carboxylic acids” (COLGATE-PALMOLIVE COMPANY, priority 2013, dated 2021).

How the values were obtained:
Format in all cases: cell-based
[1] = tested on: beneficial oral bacteria and pathogenic oral bacteria; experiment: Metabolic activity, prebiotic effect over the whole panel; conditions: for prebiotic effect (metabolic activity): threshold value of 2
Protocol: (§1) The extent of metabolic activity of the tested bacteria in the presence of the above-mentioned acids after 24 hours and 48 hours was investigated through a high throughput phenotype microarray system (PM) for microbial cells (Biolog Inc.). Each PM can contain up to 95 different biochemical compounds (e.g. organic acids) that may act as substrates for bacteria as well as one negative control, not containing the substrates. Microarray plates were used in which the different wells of each plate were pre-loaded (by the manufacturer, Biolog Inc.) with different organic acids to be tested. Each bacterial species was tested using a separate microarray plate. Thus, a single bacterial species was tested with a variety of organic acids on each particular plate. The microarrays are based on redox technology, using cell respiration as a universal reporter. […] The observation of this color change indicates which of the substrates improve the metabolic activity and health of the cells.
(§2) Each bacterial species was collected from blood agar plates (incubated for 48 hours anaerobically at 37° C.) and transferred to an IF-0 Base inoculation fluid (Biolog Inc.), which is a nutritionally poor medium. […] A 1:5 dilution of this suspension was prepared by mixing 3 mL of the 42% transmittance cell suspension with 15 mL of an inoculation fluid (which inoculation fluid was formed by mixing 11.6 mL sterile water, 62.5 mL IF-0 base inoculation fluid and 0.9 mL of the tetrazolium dye “Biolog Redox Dye mix D”), resulting in a final cell density which was equal to 85% transmittance using a BioRad SmartSpec 3000 Photometer. For each of the acids tested, the microarray plate (obtained from the supplier (Biolog Inc.) with acid already present in the relevant wells in powder form) was directly inoculated with 100 μL/well of this 85% transmittance cell suspension.
(§3) All plates were incubated in an anaerobic atmosphere at 37° C. Color changes were measured spectrophotometrically at 492 nm (Thermo Scientific Multiskan Ascent) at 24 hrs and 48 hrs using the same plate at both time points.
(§4) The controls were also carried out three times, as above.

Veillonella parvula = experiment: Metabolic activity, Biolog phenotype microarray; conditions: V parvula
Protocol: as §1, §2, §3, §4

Actinomyces viscosus = experiment: Metabolic activity, Biolog phenotype microarray; conditions: A viscosus
Protocol: as §1, §2, §3, §4

Streptococcus gordonii = experiment: Metabolic activity, Biolog phenotype microarray; conditions: S gordonii
Protocol: as §1, §2, §3, §4

Streptococcus sobrinus = experiment: Metabolic activity, Biolog phenotype microarray; conditions: S sobrinus
Protocol: as §1, §2, §3, §4

[2] = tested on: Aggregatibacter actinomycetemcomitans; experiment: Metabolic activity, Biolog phenotype microarray; conditions: A actinomycetemcomitans
Protocol: as §1, §2, §3, §4

Actinomyces naeslundii = experiment: Metabolic activity, Biolog phenotype microarray; conditions: A naeslundii
Protocol: as §1, §2, §3, §4

Streptococcus mitis = experiment: Metabolic activity, Biolog phenotype microarray; conditions: S mitis
Protocol: as §1, §2, §3, §4

Capnocytophaga sputigena = experiment: Metabolic activity, Biolog phenotype microarray; conditions: C sputigena
Protocol: as §1, §2, §3, §4

Fusobacterium nucleatum = experiment: Metabolic activity, Biolog phenotype microarray; conditions: F nucleatum
Protocol: as §1, §2, §3, §4

Streptococcus mutans = experiment: Metabolic activity, Biolog phenotype microarray; conditions: S mutans
Protocol: as §1, §2, §3, §4

Tannerella forsythia = experiment: Metabolic activity, Biolog phenotype microarray; conditions: T forsythia
Protocol: as §1, §2, §3, §4

Prevotella intermedia = experiment: Metabolic activity, Biolog phenotype microarray; conditions: P intermedia
Protocol: as §1, §2, §3, §4

Streptococcus salivarius = experiment: Metabolic activity, Biolog phenotype microarray; conditions: S salivarius
Protocol: as §1, §2, §3, §4

Porphyromonas gingivalis = experiment: Metabolic activity, Biolog phenotype microarray; conditions: P gingivalis
Protocol: as §1, §2, §3, §4

Streptococcus sanguinis = experiment: Metabolic activity, Biolog phenotype microarray; conditions: S sanguinis
Protocol: as §1, §2, §3, §4

Compound | metabolic activity, OD at 492 nm divided by OD of control (control = 1) (Veillonella parvula; 24 hrs) | metabolic activity, OD at 492 nm divided by OD of control (control = 1) (Veillonella parvula; 48 hrs) | metabolic activity, OD at 492 nm divided by OD of control (control = 1) (Actinomyces viscosus; 24 hrs) | metabolic activity, OD at 492 nm divided by OD of control (control = 1) (Actinomyces viscosus; 48 hrs) | metabolic activity, OD at 492 nm divided by OD of control (control = 1) (Streptococcus gordonii; 24 hrs) | metabolic activity, OD at 492 nm divided by OD of control (control = 1) (Streptococcus gordonii; 48 hrs) | metabolic activity, OD at 492 nm divided by OD of control (control = 1) (Streptococcus sobrinus; 24 hrs) | metabolic activity, OD at 492 nm divided by OD of control (control = 1) (Streptococcus sobrinus; 48 hrs) | metabolic activity, OD at 492 nm divided by OD of control (control = 1) ([2]; 24 hrs) | metabolic activity, OD at 492 nm divided by OD of control (control = 1) ([2]; 48 hrs) | metabolic activity, OD at 492 nm divided by OD of control (control = 1) (Actinomyces naeslundii; 24 hrs) | metabolic activity, OD at 492 nm divided by OD of control (control = 1) (Actinomyces naeslundii; 48 hrs) | metabolic activity, OD at 492 nm divided by OD of control (control = 1) (Streptococcus mitis; 24 hrs) | metabolic activity, OD at 492 nm divided by OD of control (control = 1) (Streptococcus mitis; 48 hrs) | metabolic activity, OD at 492 nm divided by OD of control (control = 1) (Capnocytophaga sputigena; 24 hrs) | metabolic activity, OD at 492 nm divided by OD of control (control = 1) (Capnocytophaga sputigena; 48 hrs) | metabolic activity, OD at 492 nm divided by OD of control (control = 1) (Fusobacterium nucleatum; 24 hrs) | metabolic activity, OD at 492 nm divided by OD of control (control = 1) (Fusobacterium nucleatum; 48 hrs) | metabolic activity, OD at 492 nm divided by OD of control (control = 1) (Streptococcus mutans; 24 hrs) | metabolic activity, OD at 492 nm divided by OD of control (control = 1) (Streptococcus mutans; 48 hrs) | also measured
CC(=O)O [Acetic acid, acetic acid] |  |  |  |  |  |  |  |  |  |  |  |  |  |  |  |  |  |  |  |  | prebiotic effect (metabolic activity) ([1]; 48 hrs): exhibited prebiotic effects
O=C(O)CC(O)(CC(=O)O)C(=O)O [Citric acid, citric acid] | 1.2832 | 2.0488 | 0.9333 | 0.9052 | 0.9010 | 0.7481 | 0.9828 | 0.8769 | 1.3098 | 1.4736 | 0.8551 | 0.7965 | 1.0814 | 0.8953 | 0.5992 | 0.8818 | 0.7626 | 0.6603 | 1.1156 | 1.0700 | metabolic activity, OD at 492 nm divided by OD of control (control = 1) (Tannerella forsythia; 24 hrs): 0.9320; metabolic activity, OD at 492 nm divided by OD of control (control = 1) (Tannerella forsythia; 48 hrs): 0.8510; metabolic activity, OD at 492 nm divided by OD of control (control = 1) (Prevotella intermedia; 24 hrs): 0.9626; metabolic activity, OD at 492 nm divided by OD of control (control = 1) (Prevotella intermedia; 48 hrs): 0.8872; metabolic activity, OD at 492 nm divided by OD of control (control = 1) (Streptococcus salivarius; 24 hrs): 0.9935; metabolic activity, OD at 492 nm divided by OD of control (control = 1) (Streptococcus salivarius; 48 hrs): 0.9148; metabolic activity, OD at 492 nm divided by OD of control (control = 1) (Porphyromonas gingivalis; 24 hrs): 0.8443; metabolic activity, OD at 492 nm divided by OD of control (control = 1) (Porphyromonas gingivalis; 48 hrs): 0.8692; metabolic activity, OD at 492 nm divided by OD of control (control = 1) (Streptococcus sanguinis; 24 hrs): 0.8938; metabolic activity, OD at 492 nm divided by OD of control (control = 1) (Streptococcus sanguinis; 48 hrs): 0.8704; prebiotic effect (metabolic activity) ([1]; 48 hrs): exhibited prebiotic effects
C[C@H](O)C(=O)O [L-lactic acid] | 3.4930 | 3.0003 | 1.5404 | 1.7915 | 0.7156 | 0.6821 | 0.8282 | 0.7747 | 1.7850 | 2.2055 | 1.6747 | 1.8440 | 1.0230 | 0.9098 | 1.4435 | 1.1474 | 0.8008 | 0.7884 | 0.8885 | 0.8138 | metabolic activity, OD at 492 nm divided by OD of control (control = 1) (Tannerella forsythia; 24 hrs): 0.8509; metabolic activity, OD at 492 nm divided by OD of control (control = 1) (Tannerella forsythia; 48 hrs): 0.8314; metabolic activity, OD at 492 nm divided by OD of control (control = 1) (Prevotella intermedia; 24 hrs): 0.9628; metabolic activity, OD at 492 nm divided by OD of control (control = 1) (Prevotella intermedia; 48 hrs): 0.9344; metabolic activity, OD at 492 nm divided by OD of control (control = 1) (Streptococcus salivarius; 24 hrs): 0.9183; metabolic activity, OD at 492 nm divided by OD of control (control = 1) (Streptococcus salivarius; 48 hrs): 0.8317; metabolic activity, OD at 492 nm divided by OD of control (control = 1) (Porphyromonas gingivalis; 24 hrs): 0.7480; metabolic activity, OD at 492 nm divided by OD of control (control = 1) (Porphyromonas gingivalis; 48 hrs): 0.7325; metabolic activity, OD at 492 nm divided by OD of control (control = 1) (Streptococcus sanguinis; 24 hrs): 0.9076; metabolic activity, OD at 492 nm divided by OD of control (control = 1) (Streptococcus sanguinis; 48 hrs): 0.8849; prebiotic effect (metabolic activity) ([1]; 24 hrs): exhibited prebiotic effects; speed of metabolism by beneficial versus pathogenic bacteria ([1]; value of 2 reached at 24 hrs for the beneficial but not the pathogenic bacteria): metabolized faster by the beneficial bacteria than by the pathogenic bacteria
O=C(O)C[C@H](O)C(=O)O [L-malic acid] | 2.0256 | 1.5012 | 0.9803 | 1.0090 | 0.9161 | 0.8652 | 1.0506 | 0.9898 | 1.6257 | 1.9196 | 0.9796 | 0.9086 | 0.9743 | 0.8207 | 0.8764 | 0.8870 | 0.8813 | 0.8215 | 0.9627 | 0.8760 | metabolic activity, OD at 492 nm divided by OD of control (control = 1) (Tannerella forsythia; 24 hrs): 0.9252; metabolic activity, OD at 492 nm divided by OD of control (control = 1) (Tannerella forsythia; 48 hrs): 0.9462; metabolic activity, OD at 492 nm divided by OD of control (control = 1) (Prevotella intermedia; 24 hrs): 0.9958; metabolic activity, OD at 492 nm divided by OD of control (control = 1) (Prevotella intermedia; 48 hrs): 1.0146; metabolic activity, OD at 492 nm divided by OD of control (control = 1) (Streptococcus salivarius; 24 hrs): 0.9740; metabolic activity, OD at 492 nm divided by OD of control (control = 1) (Streptococcus salivarius; 48 hrs): 0.9426; metabolic activity, OD at 492 nm divided by OD of control (control = 1) (Porphyromonas gingivalis; 24 hrs): 0.8367; metabolic activity, OD at 492 nm divided by OD of control (control = 1) (Porphyromonas gingivalis; 48 hrs): 0.8279; metabolic activity, OD at 492 nm divided by OD of control (control = 1) (Streptococcus sanguinis; 24 hrs): 0.8788; metabolic activity, OD at 492 nm divided by OD of control (control = 1) (Streptococcus sanguinis; 48 hrs): 0.9018; prebiotic effect (metabolic activity) ([1]; 24 hrs): exhibited prebiotic effects
COC(=O)CCC(=O)O [Mono methyl succinate, mono methyl succinate] | 2.0008 | 2.0023 | 0.9911 | 1.0314 | 0.8102 | 0.7556 | 0.9731 | 0.9118 | 0.9321 | 1.0787 | 0.8880 | 0.8882 | 1.0231 | 0.9293 | 0.8328 | 0.9842 | 0.8349 | 0.7615 | 0.9482 | 0.8864 | metabolic activity, OD at 492 nm divided by OD of control (control = 1) (Tannerella forsythia; 24 hrs): 0.8922; metabolic activity, OD at 492 nm divided by OD of control (control = 1) (Tannerella forsythia; 48 hrs): 0.8775; metabolic activity, OD at 492 nm divided by OD of control (control = 1) (Prevotella intermedia; 24 hrs): 1.0197; metabolic activity, OD at 492 nm divided by OD of control (control = 1) (Prevotella intermedia; 48 hrs): 1.0603; metabolic activity, OD at 492 nm divided by OD of control (control = 1) (Streptococcus salivarius; 24 hrs): 0.9553; metabolic activity, OD at 492 nm divided by OD of control (control = 1) (Streptococcus salivarius; 48 hrs): 0.8641; metabolic activity, OD at 492 nm divided by OD of control (control = 1) (Porphyromonas gingivalis; 24 hrs): 0.7502; metabolic activity, OD at 492 nm divided by OD of control (control = 1) (Porphyromonas gingivalis; 48 hrs): 0.6747; metabolic activity, OD at 492 nm divided by OD of control (control = 1) (Streptococcus sanguinis; 24 hrs): 0.8806; metabolic activity, OD at 492 nm divided by OD of control (control = 1) (Streptococcus sanguinis; 48 hrs): 0.8453
